Data taken from patent US11365196B2, “FGFR inhibitor and application thereof” (Betta Pharmaceuticals Co., Ltd., priority 2017, dated 2022).

Assays:
[1] = system: MFE-296 (human endometrial cancer cells); experiment: Cell proliferation assay, CellTiter Glo (Table 9); assay type: cell-based; settings: Homo sapiens, MFE-296, 96 hrs, WIFE-296 [sic]
Experimental: (§4) Test method: 100 μl of the cell suspension was added to a 96-well plate and placed in a CO2 incubator overnight. Test compounds were dissolved in DMSO and subjected to a 3-fold gradient dilution for a total of 10 concentrations. The test compound or DMSO was transferred to the corresponding cell wells respectively and was incubated for 96 hrs in 5% CO2 at 37° C. 100 μl of CellTiter-Glo reagent was added to the assay plate and incubated for 10 min at room temperature to stabilize the luminescence signal. The IC50 value was calculated by recording the RLU (relative luminescence unit) using Enspire.

FGFR4 [2] = molecular target: T1, FGFR4 (Homo sapiens (Human), UniProt P22455); experiment: Kinase assay Method 1, mobility shift assay; assay type: biochemical; settings: ATP at Km, numeric values, read-out: IC50(nM) value of compounds FGFR4
[3] = system: DMS 114 (human lung cancer cell); experiment: Cell proliferation assay, CellTiter Glo (Table 9); assay type: cell-based; settings: Homo sapiens, DMS-114, 96 hrs
Experimental: as §4

[4] = system: MDA-MB-453 (human breast cancer cell); experiment: Cell proliferation assay, CellTiter Glo (Table 9); assay type: cell-based; settings: Homo sapiens, MDA-MB-453, 96 hrs
Experimental: as §4

[5] = system: RT4 (human bladder cancer cell); experiment: Cell proliferation assay, CellTiter Glo (Table 9); assay type: cell-based; settings: Homo sapiens, 96 hrs
Experimental: as §4

[6] = system: cell lines with abnormal changes in FGFR signaling pathway; experiment: cells; settings: Homo sapiens, read-out: IC50 value
Experimental: Test method: 100 μl of the cell suspension was added to a 96-well plate and placed in a CO2 incubator overnight. […] The test compound or DMSO was transferred to the corresponding cell wells respectively and was incubated for 96 hrs in 5% CO2 at 37° C. 100 μl of CellTiter-Glo reagent was added to the assay plate and incubated for 10 min at room temperature to stabilize the luminescence signal. The IC50 value was calculated by recording the RLU (relative luminescence unit) using Enspire.

[7] = system: NCI-H1581 (human non-small cell lung cancer cells); experiment: Cell proliferation assay, CellTiter Glo (Table 9); assay type: cell-based; settings: Homo sapiens, NCI-H1581, 96 hrs
Experimental: as §4

[8] = system: OPM-2 (human myeloma cell); experiment: Cell proliferation assay, CellTiter Glo (Table 9); assay type: cell-based; settings: Homo sapiens, OPM-2, 96 hrs
Experimental: as §4

NCI-H1581 cells = experiment: Cell proliferation assay on NCI-H1581 (Table 7); assay type: cell-based, human; settings: Homo sapiens, NCI-H1581, read-out: IC50(nM) value of compounds on NCI-H1581 cells
Text: Test method: adding the appropriate volume of whole medium and the cells was suspended.

FGFR3 = FGFR3 (Homo sapiens (Human), UniProt P22607); experiment: Kinase assay Method 2, isotope-labeled 33P-ATP method; assay type: biochemical; settings: ATP at Km, filter-binding, read-out: IC50(nM) value of compounds, FGFR3
Experimental: (§1) Reagent: basic kinase buffer: 20 mM Hepes (pH 7.5), 10 mM MgCl2, 1 mM EGTA, 0.02% Brij35, 0.02 mg/mL BSA, 0.1 mM Na3VO4, 2 mM DTT, 1% DMSO
(§2) Adding the corresponding coenzyme factor to each kinase reaction
(§3) Reaction process: 1) formulating the substrate in freshly configured reaction buffer • 2) adding the required coenzyme factor to the above substrate solution • 3) adding kinase to the substrate solution and mixing gently • 4) adding the compounds dissolved in 100% DMSO to the above kinase reaction mixture, mixed well and incubating for 20 min at room temperature • 5) adding ^33P-ATP (specific activity 10 μCi/μL) to the reaction mixture to initiate the reaction and incubating for 2 h at room temperature • 6) detection of kinase activity by filter-binding The experiment data is shown in table 6: […]

FGFR2 = FGFR2 (Homo sapiens (Human), UniProt P21802); experiment: as above; assay type: biochemical; settings: ATP at Km, filter-binding, read-out: IC50(nM) value of compounds, FGFR2
Experimental: as §1, §2, §3

FGFR4 [9] = molecular target: T1, FGFR4; experiment: as above; assay type: biochemical; settings: ATP at Km, filter-binding, read-out: IC50(nM) value of compounds, FGFR4
Experimental: as §1, §2, §3

[10] = system: JHH-7 (human hepatoma cell); experiment: Cell proliferation assay, CellTiter Glo (Table 9); assay type: cell-based; settings: Homo sapiens, JHH7, 96 hrs
Experimental: as §4

[11] = system: NCI-H716 (human colorectal cancer cell); experiment: Cell proliferation assay, CellTiter Glo (Table 9); assay type: cell-based; settings: Homo sapiens, NCI-H716, 96 hrs
Experimental: as §4

[12] = system: RT-112 (human bladder cancer cell); experiment: Cell proliferation assay, CellTiter Glo (Table 9); assay type: cell-based; settings: Homo sapiens, RT-112, 96 hrs
Experimental: as §4

[13] = system: SNU-16 (human gastric cancer cell); experiment: Cell proliferation assay, CellTiter Glo (Table 9); assay type: cell-based; settings: Homo sapiens, SNU-16, 96 hrs
Experimental: as §4

T1 sequence (P22455 22-802): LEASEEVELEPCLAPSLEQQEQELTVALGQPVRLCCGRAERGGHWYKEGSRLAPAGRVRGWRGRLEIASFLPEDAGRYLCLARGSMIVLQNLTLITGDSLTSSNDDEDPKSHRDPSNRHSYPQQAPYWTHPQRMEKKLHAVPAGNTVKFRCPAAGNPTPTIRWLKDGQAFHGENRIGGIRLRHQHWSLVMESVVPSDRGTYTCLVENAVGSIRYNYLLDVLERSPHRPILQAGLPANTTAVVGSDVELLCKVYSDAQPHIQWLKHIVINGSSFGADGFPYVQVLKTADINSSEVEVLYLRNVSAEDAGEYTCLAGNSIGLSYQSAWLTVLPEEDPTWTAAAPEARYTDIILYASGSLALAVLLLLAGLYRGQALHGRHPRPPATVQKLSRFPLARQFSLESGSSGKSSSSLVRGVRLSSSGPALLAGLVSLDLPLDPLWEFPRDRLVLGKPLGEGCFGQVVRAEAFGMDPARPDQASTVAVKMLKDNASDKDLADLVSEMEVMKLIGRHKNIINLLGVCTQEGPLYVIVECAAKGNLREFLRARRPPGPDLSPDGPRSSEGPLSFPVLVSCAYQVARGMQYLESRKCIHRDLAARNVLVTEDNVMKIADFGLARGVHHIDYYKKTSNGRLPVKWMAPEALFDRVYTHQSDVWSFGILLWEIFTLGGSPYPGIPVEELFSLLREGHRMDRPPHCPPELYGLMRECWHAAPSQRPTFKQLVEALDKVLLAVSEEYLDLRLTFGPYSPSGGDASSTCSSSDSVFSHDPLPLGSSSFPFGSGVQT
Chain of FGFR2 (P21802 22-821): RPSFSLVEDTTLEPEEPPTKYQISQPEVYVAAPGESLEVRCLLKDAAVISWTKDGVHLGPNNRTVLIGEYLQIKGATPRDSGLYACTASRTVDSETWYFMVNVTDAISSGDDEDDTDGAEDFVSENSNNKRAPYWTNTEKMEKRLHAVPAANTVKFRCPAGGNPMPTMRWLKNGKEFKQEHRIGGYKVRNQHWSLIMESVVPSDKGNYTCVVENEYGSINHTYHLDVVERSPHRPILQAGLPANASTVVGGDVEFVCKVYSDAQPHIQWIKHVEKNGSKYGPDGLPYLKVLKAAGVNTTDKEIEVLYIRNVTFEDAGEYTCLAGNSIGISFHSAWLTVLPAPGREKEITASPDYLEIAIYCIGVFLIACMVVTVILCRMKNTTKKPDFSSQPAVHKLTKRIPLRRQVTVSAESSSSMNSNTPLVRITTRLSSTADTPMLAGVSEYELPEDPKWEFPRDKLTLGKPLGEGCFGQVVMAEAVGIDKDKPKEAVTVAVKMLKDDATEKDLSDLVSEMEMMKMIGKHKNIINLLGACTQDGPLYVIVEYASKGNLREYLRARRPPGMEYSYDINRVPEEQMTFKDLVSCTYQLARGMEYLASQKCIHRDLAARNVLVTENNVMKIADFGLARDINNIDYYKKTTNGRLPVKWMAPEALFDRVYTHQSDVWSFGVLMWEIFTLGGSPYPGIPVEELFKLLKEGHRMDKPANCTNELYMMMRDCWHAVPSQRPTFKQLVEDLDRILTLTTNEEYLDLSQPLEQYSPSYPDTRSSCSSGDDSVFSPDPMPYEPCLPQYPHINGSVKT
Chain of FGFR3 (P22607 23-806): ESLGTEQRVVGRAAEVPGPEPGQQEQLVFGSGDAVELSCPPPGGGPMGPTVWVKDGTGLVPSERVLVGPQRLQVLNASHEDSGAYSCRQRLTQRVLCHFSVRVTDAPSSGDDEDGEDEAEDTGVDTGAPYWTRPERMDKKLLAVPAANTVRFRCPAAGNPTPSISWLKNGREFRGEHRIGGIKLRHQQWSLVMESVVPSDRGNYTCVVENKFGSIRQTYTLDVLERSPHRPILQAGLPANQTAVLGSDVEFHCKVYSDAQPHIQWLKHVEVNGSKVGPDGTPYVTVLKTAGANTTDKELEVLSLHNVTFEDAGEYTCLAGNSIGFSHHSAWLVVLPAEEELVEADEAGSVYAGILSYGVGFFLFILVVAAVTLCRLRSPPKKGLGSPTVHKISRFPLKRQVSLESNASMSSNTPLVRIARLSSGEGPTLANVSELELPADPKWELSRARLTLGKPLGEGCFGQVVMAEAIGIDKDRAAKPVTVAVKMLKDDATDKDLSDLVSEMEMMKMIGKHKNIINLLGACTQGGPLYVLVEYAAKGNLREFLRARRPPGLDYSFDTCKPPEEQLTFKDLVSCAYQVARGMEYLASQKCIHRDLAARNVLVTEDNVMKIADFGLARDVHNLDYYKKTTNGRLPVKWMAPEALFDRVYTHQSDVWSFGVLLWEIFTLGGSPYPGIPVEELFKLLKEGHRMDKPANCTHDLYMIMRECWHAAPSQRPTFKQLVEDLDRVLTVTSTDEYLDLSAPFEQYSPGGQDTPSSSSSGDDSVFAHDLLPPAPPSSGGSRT

Compound `CCN1CCN(c2ccc(Nc3ncc4cc(-c5cc(OC)cc(OC)c5Cl)c5nncn5c4n3)cc2)CC1` [Compound 4, 6-(2-chloro-3,5-dimethoxyphenyl)-N-(4-(4-ethylpiperazin-1-yl)phenyl)-[1,2,4]triazolo[4′,3′:1,6]pyrido[2,3-d]pyrimidin-2-amine] has an IC50 [1] of 2.7 nM, an IC50 (FGFR4 [2]) of 27 nM and an IC50 [3] of 7.4 nM. It also gave an IC50 [4] of 61.3 nM, an IC50 [5] of 1.9 nM and an IC50 [6] of 0.5 to 2.7 nM. The IC50 [7] was 1.2 nM, the IC50 [8] was 4 nM and the IC50 (NCI-H1581 cells) was 0.4 nM. For the same compound, the IC50 (FGFR3) was 1.34 nM, the IC50 (FGFR2) was 0.16 nM and the IC50 (FGFR4 [9]) was 5.06 nM. It also gave an IC50 [10] of 6.6 nM, an IC50 [11] of 0.5 nM and an IC50 [12] of 1 nM. The IC50 [13] was 1.1 nM.
